Data: patent US20250041329A1, “ACIDIC POLYMER COMPOSITIONS AND METHODS OF USE THEREOF” (NexEos Diagnostics, Inc., priority 2023, published 2025)
Where two headings read alike, the source gives them in different places.

B1: eMBP1: eosinophil major basic protein-1, 13.8 kDa single polypeptide of the eosinophil granule core; stimulus in the assays (protein, UniProt P13727 17-222, looked up)
Bone marrow proteoglycan: LHLRSETSTFETPLGAKTLPEDEETPEQEMEETPCRELEEEEEWGSGSEDASKKDGAVESISVPDMVDKNLTCPEEEDTVKVVGIPGCQTCRYLLVRSLQTFSQAWFTCRRCYRGNLVSIHNFNINYRIQCSVSALNQGQVWIGGRITGSGRCRRFQWVDGSRWNFAYWAAHQPWSRGGHCVALCTRGGHWRRAHCLRRLPFICSY
modifications: Bone marrow proteoglycan
notes: eosinophil major basic protein-1, 13.8 kDa single polypeptide of the eosinophil granule core; stimulus in the assays

What was measured:
eMBP1 [1] = biological target: T1, eMBP1 (Homo sapiens, UniProt P13727); assay: eMBP1 neutralization assay; assay type: cell-based; conditions: for Hill Slope: eMBP1 neutralization curve fit; for IC50: eMBP1 neutralization potency
T1 construct: the pro-piece is removed during granule maturation in the eosinophilic leukocyte to convert pro-eMBP1 to eMBP1
T1 sequence (P13727 106-222): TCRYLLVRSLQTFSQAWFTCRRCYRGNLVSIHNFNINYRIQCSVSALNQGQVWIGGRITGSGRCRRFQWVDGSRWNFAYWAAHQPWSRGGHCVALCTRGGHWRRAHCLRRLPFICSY
Source text: Methods: The goal of the investigation is to design and test a peptide product to neutralize and, thus, mitigate toxic effects of eosinophil granule proteins as a treatment for eosinophil-related diseases. Specifically, one aim is to test various polymers of acidic amino acids (i.e., glutamate and aspartate) for their ability to neutralize eMBP1 and compare their potencies to those of the pro-piece of pro-eosinophil major basic protein 1 (pro-eMBP1) as well as various heparins, i.e., low molecular weight heparin, high molecular weight heparin, and unfractionated heparin.
Because pro-piece (PP) can neutralize the toxicity of eMBP1, we reasoned that a careful study of the carbohydrate and acidic peptide structures might elucidate the comparative functions of these domains and lead to an effective eMBP1 inhibitor. We obtained heparins and polymers of the acidic amino acids, glutamic and aspartic, and compared their potencies in the eMBP1 neutralization assay.

eMBP1 [2] = biological target: T1, eMBP1; assay: Inhibition of eMBP1-stimulated histamine release from mast cells; assay type: cell-based; conditions: each inhibitor 50 μg/ml; eMBP1 10^−6 M; rat peritoneal mast cells; FIGS. 3A-3B
Procedure: (§1) Methods: To determine if the compounds shown in Table 2 had the ability to inhibit eMBP1 in a different assay, the compounds were tested for their ability to inhibit eMBP1-stimulated histamine release from mast cells. Peritoneal cells from male rats were harvested, enriched by centrifugation through a cushion of 38% bovine serum albumin (with purities up to about 90%), and stimulated with eMBP1. As expected from previous work, eMBP1 at a concentration of 10^−6 M stimulated histamine release. Specifically, approximately 63% of total histamine was released (as determined by boiling the rat mast cells), and 84% was released in comparison to the amount released by compound 48/80 at 0.1 μg/ml.
In order to test inhibition of eMBP1-stimulated histamine release, each inhibitor was provided as a concentration of 50 μg/ml. Polyglutamic acid (Sigma P4761) in the molecular weight range of 15-50 kDa was utilized for testing.

[3] = cited from earlier work
mast cells = assay: Histamine release from mast cells stimulated with eMBP1; assay type: cell-based, rat; conditions: eMBP1 10^−6 M
Procedure: as §1

[4] = IC50 molar concentration, read-out: IC50

Molecule	Hill Slope (eMBP1 [1])	IC50 (eMBP1 [1]) [µg/mL]	IC50 (eMBP1 [1]; [4]) [nM]	other results
γ polyglutamic acid [γ poly-Glu >700 kDa]	11.5	3.317	< 4.74	–
α poly-L-glutamic acid [α poly-L-Glu 2.6 kDa]	2.581	6.965	2680	–
γ polyglutamic acid [γ poly-Glu <10 kDa]	2.534	4.62	> 462	–
Polyglutamic acid	–	–	–	inhibition of eMBP1-stimulated histamine release (eMBP1 [2]): roughly comparably and more potently than unfractionated heparin and both glycosylated and unglycosylated pro-piece
α poly-L-glutamic acid [α poly-L-Glu 7.5 kDa]	3.202	6.158	821	–
α poly-L-aspartic acid [α poly-L-Asp 1.15 kDa]	2.808	14.3	12400	–
γ polyglutamic acid [γ poly-Glu 1.2 kDa]	2.177	19.6000	16300	–
α poly-L-aspartic acid [α poly-L-Asp 23 kDa]	3.061	4.301	187	–
α poly-D-glutamic acid	2.445	5.197	157	–
α poly-L-glutamic acid [α poly-L-Glu 33 kDa]	2.786	5.118	155	–
N[C@@H](CC(=O)O)C(=O)O [monomer aspartic acid, aspartic acid, reference compound]	–	–	–	pKa [3]: about 1.92; eMBP1 inhibitory activity (in words) (eMBP1 [1]; eMBP1 neutralization, Table 2 / FIG. 1): devoid of eMBP1 inhibitory activity
α poly-L-aspartic acid [α poly-L-Asp 5.75 kDa]	2.929	4.817	838	–
α poly-L-glutamic acid [α poly-L-Glu 9 kDa]	3.499	5.961	662	–
α poly-L-glutamic acid [α poly-L-Glu 120 kDa]	2.621	4.525	37.7	–
B1	–	–	–	histamine released in comparison to the amount released by compound 48/80 (mast cells; compound 48/80 at 0.1 μg/ml): 84%; histamine released, of total histamine (mast cells; total determined by boiling the rat mast cells): approximately 63%
